Reference: patent US11800874B2, “Composition comprising a selective herbicide and an algal extract, use of an algal extract for detoxifying plants subjected to treatment with a selective herbicide” (LABORATOIRES GOËMAR, priority 2014, dated 2023)
Like-named read-outs stand apart in the source and are kept apart here.

Tests used:
Conventional soybean [1] = settings: in vivo
Description: (§1) Conventional soybean (that is to say not genetically modified and therefore not resistant to glyphosate) was planted in a greenhouse and left to grow until the 5-leaf stage.
(§2) A control batch was also cultivated, onto which water was sprayed.

Conventional soybean [2] = settings: in vivo; remark: listed apart in the source
Description: as §1, §2

[3] = test system: Glyphosate-resistant soybean; assay: Phytotoxicity of spray treatments on glyphosate-resistant soybean (Example 1); settings: 4 weeks after treatment
Description: Glyphosate-resistant soybean was planted in a greenhouse and left to grow until the 5-leaf stage. It was separated into different batches, which were each treated by spraying with the following different compositions:
as §2

Manganese-EDTA complex [Mn]
0%: Necrosed surface area (Conventional soybean [1]) | Plants having a necrosed leaf (Conventional soybean [1]) | Necrosed surface area (Conventional soybean [2]) | Plants having a necrosed leaf (Conventional soybean [2]) | Necrosed surface area ([3]; sprayed composition 0.25% w/v) | Plants having a necrosed leaf ([3]; sprayed composition 0.25% w/v) | Necrosed surface area ([3]; sprayed composition 0.5% w/v) | Plants having a necrosed leaf ([3]; sprayed composition 0.5% w/v)
